The text below walks through data of US10413594B2, “Conjugates of somatostatin analogues” (ProLynx LLC, priority 2013, dated 2019).

The half-life is how long it takes for the measured level to halve.

Where a name gives a salt, the structure may show the parent alone. Starred links: 1 amine or outer side, 2 acyl side, 3 side chain; linkers in the order of their positions; H or OH if unused. Non-standard residues stand in square brackets, D forms with d. Residues, ends and D or L forms follow the SMILES beside them. Groups on a side chain read outwards from the residue. *: point of attachment. Ethylenediamine = C(CN[*:2])N[*:1]; Hyp = O=C(O)[C@@H]1C[C@@H](O)CN1; Phg = N[C@H](C(=O)O)c1ccccc1; CO = O=C([*:1])[*:2]; Bn = c1ccc(C*)cc1 Bounds are passed on as bounds.

The nature of data set [1]: In vivo pharmacokinetics after IV injection in cannulated rats. The settings on record: Sprague Dawley, rat, plasma, 56 mg/kg conjugate. How it is done:
PK assays on the conjugates of Example 5 were performed on cannulated Sprague Dawley rats. […] Blood samples were collected at 0, 1, 2, 4, 8, 12, 24, 48, 72, and 120 hours. At each timepoint a 300 μL blood sample was added to 30 μL of a 1M citrate/0.1% Pluronic® F68 solution, pH 4.5 to lower the pH and remove coagulation factors to give plasma.
A portion of the plasma samples were precipitated by addition of 3 parts acetonitrile and centrifuged at 16000×g for 10 minutes. The samples were analyzed by HPLC for PEG-peptide conjugate and PEG-remnant concentrations. Concentrations were calculated by comparison of peak areas to a standard curve.
A portion of the releasable plasma samples was analyzed by LC/MSMS for free octreotide (MedPace).
The volume of distribution (100 mL/kg) is also in line with previous PEG conjugate, typically measured at the approximate blood volume of the rat (70 mL/kg).

For data set [2] the following is noted: subcutaneous administration; cited from earlier work.
For data set [3] the following is noted: subcutaneous administration; cited from earlier work. The source holds these as a separate data set.
A further data set deals with somatostatin receptor 5 (Homo sapiens, UniProt P35346). The settings on record: relative to other somatostatin analogs; cited from earlier work.
Sequence of somatostatin receptor 5 (P35346 whole entry): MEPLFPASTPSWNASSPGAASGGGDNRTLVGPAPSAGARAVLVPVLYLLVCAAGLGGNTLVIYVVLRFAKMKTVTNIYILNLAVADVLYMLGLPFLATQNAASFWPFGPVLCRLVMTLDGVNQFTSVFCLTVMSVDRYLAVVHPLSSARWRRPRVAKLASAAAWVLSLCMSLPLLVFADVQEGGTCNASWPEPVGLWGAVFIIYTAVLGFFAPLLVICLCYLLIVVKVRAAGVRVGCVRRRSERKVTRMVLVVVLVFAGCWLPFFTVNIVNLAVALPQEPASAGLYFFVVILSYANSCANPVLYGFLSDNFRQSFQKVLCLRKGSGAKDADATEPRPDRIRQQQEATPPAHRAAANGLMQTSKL

With `C[C@@H](O)[C@@H]1NC(=O)[C@H](CCCCN)NC(=O)[C@@H](Cc2c[nH]c3ccccc23)NC(=O)[C@H](Cc2ccccc2)NC(=O)[C@@H](NC(=O)[C@H](N)Cc2ccccc2)CSSCC(C(=O)N[C@H](CO)[C@@H](C)O)NC1=O` (relative stereo) [Octreotide, D-phenylalanyl-L-cysteinyl-L-phenylalanyl-D-tryptophyl-L-lysyl-L-threonyl-N-[2-hydroxy-1-(hydroxymethyl)propyl]-L-Cysteinamide, cyclic (2→7)-disulfide; [R—(R*,R*)]], in data set [1], the half-life is 50 h. Moreover, in data set [2], the “average half-life of elimination from plasma” value is 1.7 h.
Take `NCCCC[C@@H]1NC(=O)[C@@H](Cc2c[nH]c3ccccc23)NC(=O)[C@H](c2ccccc2)NC(=O)[C@@H]2C[C@@H](OC(=O)NCCN)CN2C(=O)[C@H](Cc2ccccc2)NC(=O)[C@H](Cc2ccc(OCc3ccccc3)cc2)NC1=O` [Pasireotide, (2-aminoethyl) carbamic acid (2R,5,8S,11S,14R,17S,19aS)-11-(4-aminobutyl)-5-benzyl-8-(4-benzyloxybenzyl)-14-(1H-indol-3ylmethyl)-4,7,10,13,16,19-hexaoxo-17-phenyloctadecahydro-3a,6,9,12,15,18-hexaazacyclopentacyclooctadecen-2-yl ester, di[(S)-2-aminosuccinic acid] salt] (cyclo([Hyp]([CO-Ethylenediamine])[Phg][dW]KY(Bn)F)): in data set [3], the effective half-life entry is “approximately 12 h” and the volume of distribution was > 100 L. In addition, the “increased affinity to somatostatin receptor 5 than other somatostatin analogs” value at somatostatin receptor 5 is 40 fold.
